Source: patent US12319891B2, “Method for releasing aldehyde or ketone” (TAKASAGO INTERNATIONAL CORPORATION, priority 2017, dated 2025)

Tests used:
[1] = molecular target: T1, lipase preparation Lipex 100 L produced by Novozymes (Thermomyces lanuginosus, UniProt O59952, N255R/T253R); experiment: LIPASE-induced fragrance emission test (Lipex 100 L); assay type: biochemical; conditions: GC/MS head space peak area of released compound minus water control; 10 mg compound in 1 g aqueous 1% Lipex 100L; released: menthone (1-1), hexenal (1-2), citral (1-3)
T1 construct: purchased Novozymes Lipex 100 L
Protocol: (§1) 10 mg of each of the compounds of Examples 1-1 to 1-3 and 1 g of an aqueous 1% lipase preparation solution were charged in a vial bottle and mixed and after hermetically sealing the bottle, the mixture was subjected to GC/MS analysis of the head space component to obtain a peak area of the fragrance emitting compound. As a control, water was used in place of the aqueous 1% lipase preparation solution, and the peak area of the control was obtained by the same method.
(§2) The fragrance emission amount was determined from the difference between the peak area of the obtained fragrance emitting compound and the peak area of the control. As the lipase preparation, Lipex 100 L produced by Novozymes, and AY “Amano” 30SD produced by Amano Enzyme Inc. were used.
(§3) • Measuring apparatus: 7890GC/5975MSD (manufactured by Agilent Technologies) • Column: BC-WAX 50 m×0.25 mm I.D. • Temperature rise: 70° C.→220° C., 4° C./min • Split ratio: 60:1

[2] = test system: Bacillus subtilis strain NBRC3134; experiment: Deodorizing component emission test by microorganism; assay type: cell-based; conditions: GC/MS head space peak area minus control; 10 mg in 3 mL culture solution, 30° C. 20 hours; released: hexenal (2-2), citronellal (2-3)
Protocol: (§4) Culture of Staphylococcus aureus strain NBRC12732, Staphylococcus epidermidis strain JCM2414T, Corynebacterium xerosis strain JCM1324, Pseudomonas aeruginosa strain NBRC13275, Bacillus subtilis strain NBRC3134, and Moraxella osloensis strain ATCC19976:
(§5) After inoculating each of bacteria in Muller-Hinton liquid medium, shaking culture was performed at 30° C. for 20 hours. 3 mL of the resulting preculture solution was transferred to a vial bottle, and 10 mg of each of the compounds of Examples 2-2 to 2-6 was mixed, followed by hermetically sealing the bottle. Thereafter, shaking culture was further performed at 30° C. for 20 hours.
(§6) A peak area of the deodorizing compound was obtained by performing GC/MS analysis of the head space component contained in the vial bottle having 3 mL of microorganism culture solution in which 10 mg of each of the compound of Examples 2-2 to 2-6 was mixed. A microorganism culture solution having not mixed therein each of the compounds of Examples 2-2 to 2-6 was used as the control, and a peak area of the control was obtained by the same method as above.
(§7) The difference between the peak area of the deodorizing compound and the peak area of the control was calculated as the deodorizing component emission amount, and the results are shown in Tables 10 to 12.
(§8) • Measuring apparatus: 7890GC/5975MSD (manufactured by Agilent Technologies) • Column: BC-WAX 50 m×0.25 mm I.D. • Temperature rise: 70° C.→220° C., 4° C./min • Split ratio: splitless

[3] = test system: Moraxella osloensis strain ATCC19976; experiment: as above; assay type: cell-based; conditions: GC/MS head space peak area minus control; 10 mg in 3 mL culture solution, 30° C. 20 hours; released: hexenal (2-2), citronellal (2-3)
Protocol: as §4, §5, §6, §7, §8

[4] = test system: Corynebacterium xerosis strain JCM1324; experiment: as above; assay type: cell-based; conditions: GC/MS head space peak area minus control; 10 mg in 3 mL culture solution, 30° C. 20 hours; released: hexenal (2-2), citronellal (2-3)
Protocol: as §4, §5, §6, §7, §8

[5] = test system: Staphylococcus aureus strain NBRC12732; experiment: as above; assay type: cell-based; conditions: GC/MS head space peak area minus control; 10 mg compound in 3 mL culture solution, 30° C. 20 hours; released: citronellal (2-3), 2,6-dimethyl-5-heptenal (2-4), trimethylhexanal (2-5), octanal (2-6)
Protocol: as §4, §5, §6, §7, §8

[6] = test system: Staphylococcus epidermidis strain JCM2414T; experiment: as above; assay type: cell-based; conditions: GC/MS head space peak area minus control; 10 mg in 3 mL culture solution, 30° C. 20 hours; released: hexenal (2-2), citronellal (2-3)
Protocol: as §4, §5, §6, §7, §8

[7] = test system: Pseudomonas aeruginosa strain NBRC13275; experiment: as above; assay type: cell-based; conditions: GC/MS head space peak area minus control; 10 mg in 3 mL culture solution, 30° C. 20 hours; released: hexenal (2-2), citronellal (2-3)
Protocol: as §4, §5, §6, §7, §8

[8] = test system: Propionibacterium acnes strain JCM6473; experiment: as above; assay type: cell-based; conditions: GC/MS head space peak area minus control; 10 mg in 3 mL culture solution, static culture 28° C. 3 days; released: hexenal (2-2), citronellal (2-3)
Protocol: After inoculating bacteria in GAM bouillon liquid medium containing Hemin 0.5 ppm and Menadione 0.5 ppm, static culture was performed at 28° C. for 3 days under anaerobic conditions. 3 mL of the resulting preculture solution was transferred to a vial bottle, and 10 mg of each of the compounds of Examples 2-2 to 2-6 was mixed, followed by hermetically sealing the bottle. Thereafter, static culture was further performed at 28° C. for 3 days.
as §6, §7, §8

[9] = test system: Malassezia furfur strain NBRC0656; experiment: as above; assay type: cell-based; conditions: GC/MS head space peak area of trimethylhexanal minus control; 10 mg in 3 mL culture solution, static culture 28° C. 3 days
Protocol: After inoculating bacteria in Sabouraud liquid medium containing 0.1% Tween 80, static culture was performed at 28° C. for 3 days under anaerobic conditions. 3 mL of the resulting preculture solution was transferred to a vial bottle, and 10 mg of each of the compounds of Examples 2-2 to 2-6 was mixed, followed by hermetically sealing the bottle. Thereafter, static culture was further performed at 28° C. for 3 days.
as §6, §7, §8

[10] = test system: lipase preparation AY "Amano" 30SD produced by Amano Enzyme Inc.; experiment: LIPASE-induced fragrance emission test (AY "Amano" 30SD); assay type: biochemical; conditions: GC/MS head space peak area of released citral minus water control; 10 mg compound in 1 g aqueous 1% AY "Amano" 30SD
Protocol: as §1, §2, §3

T1 sequence (O59952 23-291 T253R/N255R): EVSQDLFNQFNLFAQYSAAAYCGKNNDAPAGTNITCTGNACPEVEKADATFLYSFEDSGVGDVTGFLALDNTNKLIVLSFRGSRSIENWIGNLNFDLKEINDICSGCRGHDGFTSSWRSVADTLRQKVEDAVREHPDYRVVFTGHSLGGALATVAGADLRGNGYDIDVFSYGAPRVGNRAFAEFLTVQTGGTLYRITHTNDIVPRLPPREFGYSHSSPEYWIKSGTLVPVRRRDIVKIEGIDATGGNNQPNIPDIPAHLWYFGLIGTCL

In the case of `CC(C)C1=C(OC(=O)c2ccccc2)C[C@H](C)CC1` [Example 1-1, 2-isopropyl-5-methyl-1-cyclohexenyl Benzoate], the Fragrance emission amount [1] is reported as 76,407,359.
`CC(C)=CCCC(C)C=COC(=O)c1ccccc1` (stereo not drawn) [Example 2-3, 3,7-dimethylocta-1,6-dienyl Benzoate] was tested, and the “Deodorizing component emission amount” value [2] was 66,939,425, the “Deodorizing component emission amount” value [3] was 25,608,586 and the “Deodorizing component emission amount” value [4] was 692,091,257. For the same compound, the “Deodorizing component emission amount” value [5] was 1,064,240,572, the “Deodorizing component emission amount” value [6] was 76,886,509 and the “Deodorizing component emission amount” value [7] was 42,891,551. For the same compound, the “Deodorizing component emission amount” value [8] was 15,450,553.
In the case of `CCC=CC=COC(=O)c1ccccc1` [Example 1-2, 1,3-hexadienyl Benzoate], the Fragrance emission amount [1] is reported as 12,076,381, the “Deodorizing component emission amount” value [2] is reported as 106,596,512 and the “Deodorizing component emission amount” value [3] is reported as 8,864,491. For the same compound, the “Deodorizing component emission amount” value [4] was 15,168,728, the “Deodorizing component emission amount” value [6] was 17,179,106 and the “Deodorizing component emission amount” value [7] was 10,638,380. For the same compound, the “Deodorizing component emission amount” value [8] was 3,265,759.
`CC(C=COC(=O)c1ccccc1)CC(C)(C)C` (stereo not drawn) [Example 2-5, 3,5,5-trimethyl-1-hexenyl Benzoate] was tested, and the “Deodorizing component emission amount” value [5] was 189,916,125 and the “Deodorizing component emission amount” value [9] was 19,153,037.
`CCCCCCC=COC(=O)c1ccccc1` [Example 2-6, 1-octenyl Benzoate] was tested, and the “Deodorizing component emission amount” value [5] was 129,928,279.
`CC(C)=CCC=C(C)C=COC(=O)c1ccccc1` [Example 1-3, 3,7-dimethylocta-1,3,6-trienyl Benzoate] was tested, and the Fragrance emission amount [1] was 5,098,870 and the Fragrance emission amount [10] was 16,031,669.
In the case of `CC(C)=CCCC(C)=COC(=O)c1ccccc1` [Example 2-4, 2,6-dimethylhepta-1,5-dienyl Benzoate], the “Deodorizing component emission amount” value [5] is reported as 132,554,000.
